Measured values from PubChem BioAssay AID2060498 (Molecular Pharmacology Branch, DTP, NCI, 2025).

Tested on: 171881-019-R-J1-PDC tumor spheroids, viability
Test: Anticancer human tumor 171881-019-R-J1-PDC patient-derived invasive breast carcinoma cell line growth inhibition [GQUAD]
Settings: spheroids with HUVEC and MSC; for IC50: curve of first compound; for viability, T/C: stronger effect = lower value
In short: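 Multi-cell-type spheroids of tumor cells with HUVEC and mesenchymal stem cells, treated with drug combinations. Concentrations descend in half-log steps from near clinical Cmax, or from 10 microM where Cmax is unknown; viability read-out.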

[1] = second compound 0.0316 µM, first compound 0.000999 µM
[2] = second compound 0.0316 µM, first compound 0.00316 µM
[3] = second compound 0.0316 µM, first compound 0.00999 µM
[4] = second compound 0.0316 µM, first compound 0.0316 µM
[5] = second compound 0.0316 µM, first compound 0.0999 µM
[6] = second compound 0.0316 µM, first compound 0.316 µM
[7] = second compound 0.1 µM, first compound 0.000999 µM
[8] = second compound 0.1 µM, first compound 0.00316 µM
[9] = second compound 0.1 µM, first compound 0.00999 µM
[10] = second compound 0.1 µM, first compound 0.0316 µM
[11] = second compound 0.1 µM, first compound 0.0999 µM
[12] = second compound 0.1 µM, first compound 0.316 µM
[13] = second compound 0.316 µM, first compound 0.000999 µM
[14] = second compound 0.316 µM, first compound 0.00316 µM
[15] = second compound 0.316 µM, first compound 0.00999 µM
[16] = second compound 0.316 µM, first compound 0.0316 µM
[17] = second compound 0.316 µM, first compound 0.0999 µM
[18] = second compound 0.316 µM, first compound 0.316 µM
[19] = second compound 1 µM, first compound 0.000999 µM
[20] = second compound 1 µM, first compound 0.00316 µM
[21] = second compound 1 µM, first compound 0.00999 µM
[22] = second compound 1 µM, first compound 0.0316 µM
[23] = second compound 1 µM, first compound 0.0999 µM
[24] = second compound 1 µM, first compound 0.316 µM
[25] = second compound 3.16 µM, first compound 0.000999 µM
[26] = second compound 3.16 µM, first compound 0.00316 µM
[27] = second compound 3.16 µM, first compound 0.00999 µM
[28] = second compound 3.16 µM, first compound 0.0316 µM
[29] = second compound 3.16 µM, first compound 0.0999 µM
[30] = second compound 3.16 µM, first compound 0.316 µM
[31] = second compound 10 µM, first compound 0.000999 µM
[32] = second compound 10 µM, first compound 0.00316 µM
[33] = second compound 10 µM, first compound 0.00999 µM
[34] = second compound 10 µM, first compound 0.0316 µM
[35] = second compound 10 µM, first compound 0.0999 µM
[36] = second compound 10 µM, first compound 0.316 µM
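Note: spheroids exposed to compounds for 7 days.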
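Throughout, for viability, T/C: 100% = DMSO vehicle control viability.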

CCc1c2c(nc3ccc(O)cc13)-c1cc3c(c(=O)n1C2)COC(=O)[C@]3(O)CC + CN(C)c1ccc(Nc2c3ccc(NC(=O)CCN4CCCC4)cc3nc3cc(NC(=O)CCN4CCCC4)ccc23)cc1
IC50 (second compound 0.0316 µM): 8 nM
IC50 (second compound 0.1 µM): 7.74 nM
IC50 (second compound 0.316 µM): 4.32 nM
IC50 (second compound 1 µM): < 0.999 nM
IC50 (second compound 3.16 µM): < 0.999 nM
IC50 (second compound 10 µM): < 0.999 nM
viability, T/C [1]: 91.8%
viability, T/C [2]: 56.5%
viability, T/C [3]: 49.2%
viability, T/C [4]: 42.3%
viability, T/C [5]: 33.4%
viability, T/C [6]: 24.8%
viability, T/C [7]: 94.9%
viability, T/C [8]: 55.6%
viability, T/C [9]: 50.2%
viability, T/C [10]: 43.8%
viability, T/C [11]: 32.4%
viability, T/C [12]: 27.4%
viability, T/C [13]: 77.1%
viability, T/C [14]: 51.1%
viability, T/C [15]: 42.2%
viability, T/C [16]: 30.9%
viability, T/C [17]: 30.3%
viability, T/C [18]: 22%
viability, T/C [19]: 16.3%
viability, T/C [20]: 12.6%
viability, T/C [21]: 17%
viability, T/C [22]: 11%
viability, T/C [23]: 7.94%
viability, T/C [24]: 6.83%
viability, T/C [25]: 2.04%
viability, T/C [26]: 1.12%
viability, T/C [27]: 2.08%
viability, T/C [28]: 1.29%
viability, T/C [29]: 1.67%
viability, T/C [30]: 1.67%
viability, T/C [31]: 0.56%
viability, T/C [32]: 0.37%
viability, T/C [33]: 0.38%
viability, T/C [34]: 0.48%
viability, T/C [35]: 0.49%
viability, T/C [36]: 0.16%

Cc1cccc(N(C)C(=O)C2C(O)CCN2c2nc(C)cc(C(F)(F)F)c2C#N)c1 (stereo unspecified) + CN(C)c1ccc(Nc2c3ccc(NC(=O)CCN4CCCC4)cc3nc3cc(NC(=O)CCN4CCCC4)ccc23)cc1
IC50 (second compound 0.0316 µM): > 10000 nM
IC50 (second compound 0.1 µM): > 10000 nM
IC50 (second compound 0.316 µM): 7840 nM
IC50 (second compound 1 µM): < 31.6 nM
IC50 (second compound 3.16 µM): < 31.6 nM
IC50 (second compound 10 µM): < 31.6 nM
viability, T/C [4]: 87.6%
viability, T/C (second compound 0.0316 µM, first compound 0.1 µM): 91.2%
viability, T/C [6]: 103%
viability, T/C (second compound 0.0316 µM, first compound 1 µM): 101%
viability, T/C (second compound 0.0316 µM, first compound 3.16 µM): 87.6%
viability, T/C (second compound 0.0316 µM, first compound 10 µM): 79.2%
viability, T/C [10]: 99.2%
viability, T/C (second compound 0.1 µM, first compound 0.1 µM): 102%
viability, T/C [12]: 96.4%
viability, T/C (second compound 0.1 µM, first compound 1 µM): 105%
viability, T/C (second compound 0.1 µM, first compound 3.16 µM): 85.6%
viability, T/C (second compound 0.1 µM, first compound 10 µM): 75.2%
viability, T/C [16]: 88.3%
viability, T/C (second compound 0.316 µM, first compound 0.1 µM): 93.5%
viability, T/C [18]: 85.2%
viability, T/C (second compound 0.316 µM, first compound 1 µM): 75.1%
viability, T/C (second compound 0.316 µM, first compound 3.16 µM): 75.7%
viability, T/C (second compound 0.316 µM, first compound 10 µM): 43.3%
viability, T/C [22]: 26.3%
viability, T/C (second compound 1 µM, first compound 0.1 µM): 23.1%
viability, T/C [24]: 31.7%
viability, T/C (second compound 1 µM, first compound 1 µM): 23.1%
viability, T/C (second compound 1 µM, first compound 3.16 µM): 19.1%
viability, T/C (second compound 1 µM, first compound 10 µM): 9.15%
viability, T/C [28]: 1.62%
viability, T/C (second compound 3.16 µM, first compound 0.1 µM): 1.75%
viability, T/C [30]: 1.5%
viability, T/C (second compound 3.16 µM, first compound 1 µM): 1.54%
viability, T/C (second compound 3.16 µM, first compound 3.16 µM): 1.07%
viability, T/C (second compound 3.16 µM, first compound 10 µM): 1.26%
viability, T/C [34]: 0.45%
viability, T/C (second compound 10 µM, first compound 0.1 µM): 0.54%
viability, T/C [36]: 0.26%
viability, T/C (second compound 10 µM, first compound 1 µM): 0.48%
viability, T/C (second compound 10 µM, first compound 3.16 µM): 0.65%
viability, T/C (second compound 10 µM, first compound 10 µM): 0.44%

Cn1ncnc1[C@H]1c2n[nH]c(=O)c3cc(F)cc(c23)N[C@@H]1c1ccc(F)cc1 + CN(C)c1ccc(Nc2c3ccc(NC(=O)CCN4CCCC4)cc3nc3cc(NC(=O)CCN4CCCC4)ccc23)cc1
IC50 (second compound 0.0316 µM): > 316 nM
IC50 (second compound 0.1 µM): > 316 nM
IC50 (second compound 0.316 µM): > 316 nM
IC50 (second compound 1 µM): < 0.999 nM
IC50 (second compound 3.16 µM): < 0.999 nM
IC50 (second compound 10 µM): < 0.999 nM
viability, T/C [1]: 95.8%
viability, T/C [2]: 98%
viability, T/C [3]: 91.5%
viability, T/C [4]: 102%
viability, T/C [5]: 88.9%
viability, T/C [6]: 96.1%
viability, T/C [7]: 105%
viability, T/C [8]: 97.8%
viability, T/C [9]: 98.8%
viability, T/C [10]: 100%
viability, T/C [11]: 72.9%
viability, T/C [12]: 87.6%
viability, T/C [13]: 87.7%
viability, T/C [14]: 84.6%
viability, T/C [15]: 89%
viability, T/C [16]: 68.2%
viability, T/C [17]: 79.3%
viability, T/C [18]: 77%
viability, T/C [19]: 35.8%
viability, T/C [20]: 24.4%
viability, T/C [21]: 34.5%
viability, T/C [22]: 16.9%
viability, T/C [23]: 22%
viability, T/C [24]: 19.1%
viability, T/C [25]: 2.45%
viability, T/C [26]: 2.11%
viability, T/C [27]: 1.92%
viability, T/C [28]: 1.34%
viability, T/C [29]: 1.64%
viability, T/C [30]: 2.41%
viability, T/C [31]: 0.29%
viability, T/C [32]: 0.56%
viability, T/C [33]: 0.56%
viability, T/C [34]: 0.4%
viability, T/C [35]: 0.71%
viability, T/C [36]: 1.05%
